Data published in ChEMBL document CHEMBL1201862, “PubChem BioAssay data set” (2004).
Active and inactive are the calls of the source.

Assays:
[1] = cAMP pathway inhibition in counterscreen cell line – TR-FRET cAMP detection, counter-screen for MC4R biased antagonist project, dose response (AID 602305); assay type: functional, cell-based;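 also: U2OS cells stimulated with forskolin near its EC80 as the cAMP inducer; potency is for inhibition of forskolin-stimulated cAMP signaling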
[2] = molecular target: Melanocortin receptor 4 (Homo sapiens, UniProt P32245); test: inhibitors of MC4R cAMP signaling – cell-based, TR-FRET, biased antagonists, dose response (AID 602298); assay type: functional;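 also: antagonist potency against agonist-stimulated cAMP production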
[3] = tested on: BJ; test: growth inhibition of engineered Ras-driven BJ cells – cell-based, alamar blue fluorescence, cherrypicked samples, dose response (AID 2631); assay type: functional; conditions: Homo sapiens;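 also: confirmatory dose-response assay in RAS-dependent BJ fibroblasts engineered with TERT, LT and ST, with cytotoxicity read by fluorescence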
[4] = Luminescence Cell-Based Dose Confirmation HTS to Identify Inhibitors of Platelet Dense Granule Release. [Related pubchem assays: 1663 (Primary HTS), 1678 (Summary of Project)]; assay type: functional
[5] = tested on: BJ; test: BJ-TERT-LT-ST fibroblast viability loss – cell-based, RAS-independent, luminescence, dose response (AID 1935); assay type: functional; conditions: Homo sapiens;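 also: BJ fibroblasts immortalized with TERT plus LT and ST oncogenes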
[6] = molecular target: Luciferin 4-monooxygenase (Photinus pyralis, UniProt P08659); test: inhibition of purified Photinus pyralis luciferase – biochemical, luminescence, dose response (AID 1891)
[7] = DRD fibroblast viability loss – cell-based, non-viral oncogenic, luminescence, dose response (AID 1934); assay type: functional; conditions: Homo sapiens
[8] = tested on: BJ; test: cells; assay type: functional, cell-based; conditions: Homo sapiens
[9] = tested on: BJ; test: BJ-TERT fibroblast viability loss – cell-based, RAS-independent, luminescence, dose response (AID 1933); assay type: functional; conditions: Homo sapiens
[10] = molecular target: T1, Replicative DNA helicase DnaB (Mycobacterium tuberculosis, UniProt P9WMR3); test: DnaB intein splicing inhibitors, dose response, biochemical, cell-free fluorescence (AID 449749); assay type: functional
T1 sequence (P9WMR3 whole entry): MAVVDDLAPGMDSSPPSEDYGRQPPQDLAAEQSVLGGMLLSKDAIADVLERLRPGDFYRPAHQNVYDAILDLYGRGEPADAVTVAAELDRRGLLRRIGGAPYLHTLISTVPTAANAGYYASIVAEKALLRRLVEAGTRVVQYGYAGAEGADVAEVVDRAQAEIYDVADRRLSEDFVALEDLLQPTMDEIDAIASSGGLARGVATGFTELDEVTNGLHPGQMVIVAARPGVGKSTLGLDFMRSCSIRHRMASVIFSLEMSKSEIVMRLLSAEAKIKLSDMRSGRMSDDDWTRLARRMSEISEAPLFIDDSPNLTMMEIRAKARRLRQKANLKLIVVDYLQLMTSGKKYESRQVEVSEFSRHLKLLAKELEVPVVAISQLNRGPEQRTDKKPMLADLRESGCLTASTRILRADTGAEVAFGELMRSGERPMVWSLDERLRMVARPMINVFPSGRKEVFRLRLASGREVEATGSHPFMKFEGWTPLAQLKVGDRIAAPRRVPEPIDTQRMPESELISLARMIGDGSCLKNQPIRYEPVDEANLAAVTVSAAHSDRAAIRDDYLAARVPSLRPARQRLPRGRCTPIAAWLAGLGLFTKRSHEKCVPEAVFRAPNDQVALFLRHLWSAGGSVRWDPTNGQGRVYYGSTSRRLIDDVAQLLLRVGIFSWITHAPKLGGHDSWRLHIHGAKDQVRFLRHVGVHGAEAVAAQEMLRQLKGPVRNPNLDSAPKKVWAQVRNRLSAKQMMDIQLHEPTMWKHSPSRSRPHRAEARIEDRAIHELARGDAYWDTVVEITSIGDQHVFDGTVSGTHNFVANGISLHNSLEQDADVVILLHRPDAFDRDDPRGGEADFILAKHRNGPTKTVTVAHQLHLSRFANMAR

[11] = molecular target: T2, Microphthalmia-associated transcription factor (Homo sapiens, UniProt O75030); test: reducers of TRPM1 reporter luminescence, concentration series – cell-based, SK-MEL-5, cherry-picked, set 3, MITF inhibitor project, dose response (AID 493073); assay type: functional;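 also: SK-MEL-5 melanoma cells with luciferase driven by the MITF target TRPM1 promoter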
T2 sequence (O75030 whole entry): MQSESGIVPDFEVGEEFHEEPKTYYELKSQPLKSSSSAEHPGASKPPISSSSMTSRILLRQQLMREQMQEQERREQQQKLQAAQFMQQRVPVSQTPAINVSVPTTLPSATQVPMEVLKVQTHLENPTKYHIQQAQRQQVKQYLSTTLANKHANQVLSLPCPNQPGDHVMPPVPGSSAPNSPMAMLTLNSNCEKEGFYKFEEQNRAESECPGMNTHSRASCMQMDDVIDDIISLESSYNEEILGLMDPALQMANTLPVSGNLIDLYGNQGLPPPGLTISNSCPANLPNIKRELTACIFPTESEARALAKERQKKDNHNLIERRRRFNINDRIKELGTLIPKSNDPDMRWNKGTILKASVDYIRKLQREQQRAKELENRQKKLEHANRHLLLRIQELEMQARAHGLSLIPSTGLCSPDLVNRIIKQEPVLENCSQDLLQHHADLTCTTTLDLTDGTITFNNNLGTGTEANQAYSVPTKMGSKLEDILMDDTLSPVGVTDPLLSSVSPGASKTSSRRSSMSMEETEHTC

[12] = molecular target: T3, Protein RecA (Mycobacterium tuberculosis, UniProt P9WHJ3); test: Fluorescence Cell-Free Homogeneous Dose Retest to Identify Inhibitors of RecA-Intein Splicing Activity. [Related pubchem assays (depositor defined):AID2097, AID2223, AID489010, AID492950]; assay type: functional
T3 sequence (P9WHJ3 whole entry): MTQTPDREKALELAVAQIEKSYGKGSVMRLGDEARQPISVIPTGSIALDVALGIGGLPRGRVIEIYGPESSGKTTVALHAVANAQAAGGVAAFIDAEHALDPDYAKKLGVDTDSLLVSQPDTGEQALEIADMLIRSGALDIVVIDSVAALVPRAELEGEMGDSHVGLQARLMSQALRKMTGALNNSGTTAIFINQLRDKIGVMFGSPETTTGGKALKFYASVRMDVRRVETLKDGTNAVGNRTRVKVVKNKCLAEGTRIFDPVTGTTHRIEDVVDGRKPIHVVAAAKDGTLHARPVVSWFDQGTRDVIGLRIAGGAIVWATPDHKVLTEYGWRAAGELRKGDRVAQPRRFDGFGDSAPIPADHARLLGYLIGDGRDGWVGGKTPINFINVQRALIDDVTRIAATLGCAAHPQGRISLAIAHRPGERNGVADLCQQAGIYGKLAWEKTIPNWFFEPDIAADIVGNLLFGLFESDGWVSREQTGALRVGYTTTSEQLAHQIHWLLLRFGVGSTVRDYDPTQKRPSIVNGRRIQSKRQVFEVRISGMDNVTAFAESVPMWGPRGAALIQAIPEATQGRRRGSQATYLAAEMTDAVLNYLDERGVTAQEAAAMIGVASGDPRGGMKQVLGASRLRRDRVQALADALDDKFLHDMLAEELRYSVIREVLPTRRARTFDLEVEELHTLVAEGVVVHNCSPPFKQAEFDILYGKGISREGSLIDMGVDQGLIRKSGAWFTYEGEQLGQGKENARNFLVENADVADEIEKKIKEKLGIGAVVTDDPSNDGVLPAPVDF

[13] = molecular target: Mitochondrial peptide methionine sulfoxide reductase (Bos taurus, UniProt P54149); test: Absorbance-based biochemical high throughput dose response assay for activators of Methionine sulfoxide reductase A (MsrA).; assay type: functional
[14] = molecular target: T4, Calpain-2 catalytic subunit (Sus scrofa, UniProt P43367); test: m-calpain protease blockers, concentration series – biochemical, fluorogenic peptide substrate, dose response (AID 1420); assay type: functional
T4 sequence (P43367 whole entry): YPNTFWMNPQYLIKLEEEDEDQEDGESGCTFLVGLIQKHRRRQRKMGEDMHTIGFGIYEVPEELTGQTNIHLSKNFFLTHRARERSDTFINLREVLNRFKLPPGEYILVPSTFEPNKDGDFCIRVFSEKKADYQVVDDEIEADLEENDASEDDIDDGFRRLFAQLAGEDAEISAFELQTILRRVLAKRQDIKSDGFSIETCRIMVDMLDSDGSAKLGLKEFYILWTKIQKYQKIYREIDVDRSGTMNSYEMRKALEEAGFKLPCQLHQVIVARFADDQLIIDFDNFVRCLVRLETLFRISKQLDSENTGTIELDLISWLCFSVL

[15] = tested on: Vero; test: cells; assay type: functional; conditions: Chlorocebus sabaeus
[16] = molecular target: Latent membrane protein 1 (Human herpesvirus 4 (strain B95-8), UniProt P03230); test: LMP1 TES1 pathway selectivity over dsRED control – imaging, HEK293T, dual-color eGFP/dsRED, cherry-picks, selectivity assay for LMP1 NF-kB inhibitor project, dose response (AID 588398); assay type: functional, cell-based
[17] = tested on: HEK293; test: EBV LMP1 TES2 canonical NF-kB signalling blockers – cell-based, HEK293, luciferase, cherry-pick, dose response (AID 588343); assay type: functional; conditions: Homo sapiens
[18] = molecular target: Beta-2 adrenergic receptor (Homo sapiens, UniProt P07550); test: ADRB2 activation measured by internalization – cell-based, FAP fluorogen, flow cytometry, cherry pick 1, dose response (AID 588763); assay type: functional
Beta-2 adrenergic receptor, sequence (P07550 whole entry): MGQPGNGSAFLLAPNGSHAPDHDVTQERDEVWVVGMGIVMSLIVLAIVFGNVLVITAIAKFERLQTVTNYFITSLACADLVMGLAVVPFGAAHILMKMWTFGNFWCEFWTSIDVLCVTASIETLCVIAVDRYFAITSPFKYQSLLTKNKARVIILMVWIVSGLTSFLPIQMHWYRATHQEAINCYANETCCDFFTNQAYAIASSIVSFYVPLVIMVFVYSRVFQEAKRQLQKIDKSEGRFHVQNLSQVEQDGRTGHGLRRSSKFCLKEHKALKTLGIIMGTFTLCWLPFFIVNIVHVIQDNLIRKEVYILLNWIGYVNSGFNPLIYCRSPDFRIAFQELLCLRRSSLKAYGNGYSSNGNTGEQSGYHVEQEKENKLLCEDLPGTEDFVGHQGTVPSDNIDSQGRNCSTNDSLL

Melanocortin receptor 4, sequence (P32245 whole entry): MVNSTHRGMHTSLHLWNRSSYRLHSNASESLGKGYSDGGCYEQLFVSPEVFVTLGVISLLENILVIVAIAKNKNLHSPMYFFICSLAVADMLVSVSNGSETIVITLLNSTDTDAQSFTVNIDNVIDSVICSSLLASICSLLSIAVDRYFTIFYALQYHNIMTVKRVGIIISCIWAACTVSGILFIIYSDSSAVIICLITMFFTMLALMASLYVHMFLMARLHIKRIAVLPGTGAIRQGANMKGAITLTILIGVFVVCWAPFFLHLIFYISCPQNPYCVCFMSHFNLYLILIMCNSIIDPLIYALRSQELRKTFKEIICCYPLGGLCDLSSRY
Latent membrane protein 1, sequence (P03230 whole entry): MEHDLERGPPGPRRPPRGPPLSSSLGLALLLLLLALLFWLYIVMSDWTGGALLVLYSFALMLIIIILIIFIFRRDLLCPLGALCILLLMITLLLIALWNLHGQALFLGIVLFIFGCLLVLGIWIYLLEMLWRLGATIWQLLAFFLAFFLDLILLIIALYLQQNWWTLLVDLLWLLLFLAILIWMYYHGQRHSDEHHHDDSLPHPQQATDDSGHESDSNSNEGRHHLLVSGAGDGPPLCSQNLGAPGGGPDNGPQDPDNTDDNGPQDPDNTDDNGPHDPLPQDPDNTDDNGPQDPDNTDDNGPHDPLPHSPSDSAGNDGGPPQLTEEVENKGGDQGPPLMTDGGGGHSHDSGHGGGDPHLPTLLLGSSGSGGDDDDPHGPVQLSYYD
Mitochondrial peptide methionine sulfoxide reductase, sequence (P54149 whole entry): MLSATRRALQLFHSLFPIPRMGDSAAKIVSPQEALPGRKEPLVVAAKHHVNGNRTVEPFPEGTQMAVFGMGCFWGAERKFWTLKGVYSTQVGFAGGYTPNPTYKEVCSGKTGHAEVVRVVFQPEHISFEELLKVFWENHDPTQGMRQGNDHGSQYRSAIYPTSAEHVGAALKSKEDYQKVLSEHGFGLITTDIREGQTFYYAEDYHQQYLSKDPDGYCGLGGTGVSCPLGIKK
Luciferin 4-monooxygenase, sequence (P08659 whole entry): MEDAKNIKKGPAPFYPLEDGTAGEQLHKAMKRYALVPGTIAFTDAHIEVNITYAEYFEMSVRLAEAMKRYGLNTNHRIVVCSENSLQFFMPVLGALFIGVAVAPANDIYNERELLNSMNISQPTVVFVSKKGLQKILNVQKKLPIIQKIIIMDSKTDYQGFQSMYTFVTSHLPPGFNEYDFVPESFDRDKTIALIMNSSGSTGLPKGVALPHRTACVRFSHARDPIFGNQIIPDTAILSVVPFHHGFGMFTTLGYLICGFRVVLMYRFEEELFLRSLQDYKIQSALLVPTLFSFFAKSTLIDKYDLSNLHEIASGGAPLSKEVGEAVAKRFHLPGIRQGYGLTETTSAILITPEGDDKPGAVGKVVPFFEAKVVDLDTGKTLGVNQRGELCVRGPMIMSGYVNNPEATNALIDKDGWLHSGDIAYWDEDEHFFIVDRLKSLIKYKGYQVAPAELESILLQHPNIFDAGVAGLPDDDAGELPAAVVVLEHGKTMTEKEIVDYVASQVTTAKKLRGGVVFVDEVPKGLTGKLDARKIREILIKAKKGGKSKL

In the case of `CCOc1ccc(C(=O)CCC(=O)NCC(=O)OCc2ccccc2)cc1OCC`, the IC50 [1] is reported as > 64.6 µM (inactive) and the IC50 [2] is reported as > 64.6 µM (inactive).
For `CSCCC(NC(=O)c1cccc(C)c1)C(=O)OCN1C(=O)c2ccccc2C1=O` (stereo unspecified), the IC50 [1] was > 64.6 µM (inactive) and the IC50 [2] was > 21.5 µM (inactive).
In the case of `COc1cccc(C(=O)Nc2ccc(N3CCCC3)cc2)c1`, the EC50 [3] is reported as 86.1 µM (active), the EC50 [4] is reported as 1.2 µM (active) and the EC50 [5] is reported as 13.8 µM (active). For the same compound, the EC50 [6] was 0.856 µM (active), the EC50 [7] was 4.29 µM (active) and the EC50 [8] was 3.26 µM (active). The EC50 [9] was 9.4 µM (active).
In the case of `CCNC1=C(Cl)C(=O)c2ccccc2C1=O`, the AC50 [10] is reported as 6.98 µM (active), the AC50 [11] is reported as 3.84 µM (active) and the EC50 [12] is reported as 20 µM (active). For the same compound, the EC50 [13] was > 104 µM (inactive) and the IC50 [14] was > 50 µM (not active).
With `C=C1C(=O)O[C@@H]2C[C@@H](C)[C@H]3C=CC(=O)[C@]3(O)C[C@@H]12` the EC50 [3] was 3.09 µM (active).
In the case of `O=C1/C(=C/c2ccncc2)SC(=S)N1Cc1ccccc1`, the CC50 [15] is reported as > 25 µM (active), the AC50 [16] is reported as 30.1 µM (active) and the AC50 [17] is reported as 0.678 µM (active).
In the case of `CC1(C)Cc2c(c(N3CCOCC3)nc3sc4c(NCCN)ncnc4c23)CO1`, the EC50 [18] is reported as 0.158 µM (active).
